2 molecules from patent EP0279757A1, “Kit for use as an agent for the selective destruction of transformed cells” (priority 1987, dated 1988) can be followed below.

Holding throughout (format): cell-based
Assay [1] concerns foyers transformés de cellules BALB/c 3T3. The experiment in a line: Stimulation of gap junction communication by an exogenous compound and its effect on selective elimination. How it is done:
L'efficacité d'élimination a également été augmentée par stimulation de la communication des "gap junctions" par un composé exogène : après addition de dibutyryl c-AMP (1mM) dans une boîte de Pétri qui contient des foyers transformés de cellules BALB/c 3T3, on a observé que les communications intercellulaires sont stimulées dans les foyers transformés et dans la monocouche non transformée; cependant, les deux types de cellules ne communiquent pas entre eux.

The next assay relates to cellules transformées. The experiment in a line: Selective destruction of transformed cells by micro-injection into one target cell followed by activation at 400 nm. The following applies: set of 100 transformed cells, activation at 400 nm for 5 to 10 minutes. An excerpt: Pour être utilisée conformément à l'objectif visé, la susbtance (a) doit être acheminée par toute technique appropriée dans au moins l'une des cellules transformées à détruire, à partir de laquelle elle passe de manière spécifique dans les autres cellules transformées du même site, par l'intermédiaire des "gap junctions". La technique préférée actuellement est la micro-injection, bien connue de l'homme du métier et décrite en détail dans l'article de Cancer Res. cité plus haut.
Dans la pratique, il apparaît avantageux de micro-injecter la substance (a) ou des solutions salines (par exemple en milieu physiologique) de la substance (a), à raison d'un volume pouvant ne pas dépasser environ 10% par rapport au volume de la cellule-cible, par des micro-injections fractionnées et espacées entre elles, par exemple à des intervalles de 10 minutes, ou par une micro-injection en continu.
Il est préférable de respecter une attente entre la dernière micro-injection ou la fin de la micro-injection en continu et l'entrée en fonction du moyen pour l'activation de la susbtance toxique (a), afin que le passage de cette dernière dans l'ensemble des cellules transformées du site traité soit effectif. […]

Assay [2] relates to cellules épithéliales de foie de rat transformées (IAR 27 ou IAR 6-1) et non transformées (IAR 20). The experiment in a line: Co-culture of transformed and non-transformed cells: micro-injection, dye diffusion and killing after near-UV exposure. An excerpt:
On a utilisé aussi des cellules épithéliales de foie de rat transformées et non transformées. Puisqu'à l'heure actuelle, il n'existe pas de mé-thode d'induction in situ de foyer épithélial transformée par des cancé-rogènes, on a cocultivé articifiellement des cellules épithéliales de foie de rat transformées et non transformées, de sorte que les deux types de cellules puissent être en contact. Lorsque les cellules transformées (IAR 27 ou IAR 6-1) sont cultivées avec des cellules non transformées (IAR 20), la frontière entre les deux types de cellules est clairement visible à cause de la différence de leur aspect morphologique.

The subject of assay [3] is cellules BALB/c 3T3 transfectées par pEJ-ras-H (cellules transformées). The experiment in a line: Killing of transformed cells by micro-injection followed by near-UV irradiation (400 nm). Conditions: micro-injection into transformed cells, irradiation at a frequency close to UV; checked by Trepan blue staining or microscopy. An excerpt: Cet exemple concerne la destruction de cellules transformées, par micro-injection de Lucifer Yellow CH, suivie d'une irradiation à 400 nm.
Pour la production de cellules transformées, on a utilisé des cellules BALB/c 3T3, ce système de transformation assurant la production in situ de cellules transformées sur une couche mono-cellulaire normale, et simule ainsi la cancérogenèse in vivo.
Des cellules BALB/c 3T3 ont été transfectées par un oncogène activé que l'on a isolé d'un carcinome de vessie humaire, le pEJ-ras-H; par cette opération, on a obtenu des cellules transformées. […] Lorsque de nombreuses cellules sont tuées dans un foyer transformé, le foyer entier se décolle du fond de la boîte de Pétri. L'élimination de cellules se vérifie habituellement par coloration au "Trepan blue" mais peut également être confirmée par observation attentive au microscope : ces cellules ne montrent pas de capacité de prolifération; un grand nombre d'entre elles sont décollées.

With `CCCC(=O)Nc1ncnc2c1ncn2[C@@H]1O[C@@H]2COP(=O)(O)O[C@H]2[C@H]1OC(=O)CCC` [dibutyryl c-AMP], in assay [1] (1mM added to the Petri dish, elimination by Lucifer Yellow CH micro-injection and irradiation), the “élimination sélective dans les cellules transformées” value is listed as “plus facilement”. In addition, the communications intercellulaires entry in assay [1] (1mM added to the Petri dish, in transformed foci and in the non-transformed monolayer, the two cell types do not communicate with each other) is recorded as “stimulées”. Besides, the “spécificité de communication intercellulaire” value in assay [1] (prolonged treatment, transformed phenotypes then began to disappear) was “suppression de la spécificité de communication”.
With Lucifer Yellow CH, in the assay with cellules transformées, the “destruction de cellules transformées” value is “destruction sélective complète”. Besides, the mort des cellules-cibles result in assay [2] (after exposure to near-UV radiation) is reported as “la mort des cellules”. Also, the diffusion du colorant entry in assay [2] (micro-injection in co-culture of IAR 27 or IAR 6-1 with IAR 20) is reported as “diffusion sélective du colorant dans les cellules du même type”. Further, the “élimination sélective des cellules transformées” value in assay [3] was “on a pu les tuer”.
